“Also recorded” adds a separate entry of the source. Read-outs that look alike come from different tables or passages of the source.
How the values were obtained:
tumor cells = experiment: Cytotoxicity in the presence of necroptosis inhibitor necrostatin-1; assay type: cell-based; details: data not shown
Excerpt: All our data are highly consistent and point to necrosis as the overwhelmingly dominant mechanism of cell death by both 3-BP and NEO218 in our cell systems, as supported by the following observations: (i) A pan-caspase inhibitor exerted no influence on the cytotoxic IC50 of 3-BP or NEO218 (FIG. 21C). (ii) Several established protein markers of apoptosis show very little, if any, response to drug treatment (FIG. 21B). (iii) Loss of structural integrity of the plasma membrane is a hallmark of necrosis and can be documented via cellular uptake of membrane-impermeant dyes (such as propidium iodide, PI) or cellular leakage of cytosolic enzymes (such as lactate dehydrogenase, LDH). […] The loss of plasma membrane integrity is consistent with cell death induced by the severe ATP depletion observed by us (FIG. 22) and reported by others, because maintenance of the cytoplasmic transmembrane electrochemical gradients is highly energy dependent, and their loss inevitably leads to cell swelling and membrane rupture (i.e., necrosis). (iv) Rapid cell death is another characteristic of necrotic cell death. We detected PI positivity and LDH release within the first 2 hours of drug exposure (see FIG. 21A for PI; time course not shown for LDH). […] Cells were treated with 3-BP or NEO218 in the presence of necrostatin-1 (Nec-1), a commonly used inhibitor of necroptosis.

HCT116 cells [1] = experiment: Colony formation assay in HCT116 cells; assay type: cell-based, human; details: for IC50: Homo sapiens, HCT-116, HCT116, 48 hours drug then 10-14 days, read-out: half-maximal effect, CFA
Description: (A) MTT assay was performed after 24 hours. […] (B) LDH assay was performed after […]. LDH release by untreated cells was set to 1. Relative fold increase is shown (n=3).
Depending on the cell line (and plating efficiency), 250-800 cells were seeded into each well of a 6-well plate and treated as described in detail previously. After 12-16 days, colonies (defined as groups of >50 cells) were visualized by staining for 4 hours with 1% methylene blue (in methanol), and then were-counted. Experiments were repeated at least once, but usually more often under different conditions.

HCT116 cells [2] = experiment: MTT assay with or without antioxidants NAC or GSH; assay type: cell-based, human; details: HCT116, MTT after 24 hours
Description: (§1) (A) HCT116 cells were treated with 40 μM 3-BP or NEO218 in the presence or absence of 1 mM NAC, 1 mM GSH, or 50 mM methyl-pyruvate (or sodium pyruvate, which produced similar outcomes). Cell viability was determined 24 hours later by MTT assay. (B) HCT116 cells were treated with 30 or 100 μM 3-BP or NEO218. After 30 minutes, cell lysates were prepared and analyzed for GAPDH activity. (C) Lysates from non-drug-treated MDA-MB-231 cells were mixed with 3-BP or NEO218 in the presence or absence of NAC or GSH at the concentrations mentioned in A. After 1 hour of incubation, GAPDH activity was determined. GAPDH activity in the absence of drug treatment was set at 100% (corresponding to 0.06 units/min×10^6 cells).
Tumor cells were treated with either NAC or GSH, in combination with NEO218 or 3-BP. HCT116 cells were treated with increasing concentrations of NEO218 and 3-BP (individually), in the presence or absence of 5 mM NAC or 1 mM GSH. After 24 hours, cell viability was determined by MTT assay.

GAPDH = target: T1, GAPDH (Oryctolagus cuniculus, UniProt P46406); experiment: Mass spectrometry of purified GAPDH protein incubated with drug (cysteine modification); assay type: binding, rabbit; details: 60 μM drug, 15 minutes
T1 construct: Purified GAPDH protein (30 μg, 1 μg/μl) from rabbit muscle (ScienCell Research Laboratories); purchased ScienCell Research Laboratories; host or cells: rabbit muscle
T1 sequence (P46406 whole entry): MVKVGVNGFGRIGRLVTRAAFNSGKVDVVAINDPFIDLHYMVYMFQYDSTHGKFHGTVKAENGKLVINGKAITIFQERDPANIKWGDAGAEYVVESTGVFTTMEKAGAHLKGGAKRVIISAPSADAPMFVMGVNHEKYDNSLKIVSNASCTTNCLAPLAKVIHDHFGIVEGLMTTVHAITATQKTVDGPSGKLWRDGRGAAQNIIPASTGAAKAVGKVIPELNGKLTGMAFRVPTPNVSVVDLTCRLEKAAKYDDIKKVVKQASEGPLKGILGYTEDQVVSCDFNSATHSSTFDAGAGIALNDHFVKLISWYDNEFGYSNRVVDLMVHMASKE
Description: Direct interaction of NEO218 with different targets was analyzed by LC/MS analysis. (A) Purified rabbit GAPDH protein was incubated with 3-BP or NEO218 for 15 minutes, followed by LC/MS analysis. GAPDH protein contains 4 cysteines (Cys) at the indicated positions, and all four were identified as being modified with a pyruvate moiety in the case of 3-BP, and a pyruvate-perillyl alcohol moiety in the case of NEO218 (indicated by pyr). (B) Extracted ion chromatogram (XIC) of the reaction products of NEO218 and GSH restricted to mass over charge (m/z) values between 528 and 529. […] Location and relative size of the peak at 529.204 corresponds to the ^13C isotope peak of the reaction product. (C) Reaction of NAC with NEO218 yielded several products shown in the ion map (top panel). The co-eluting twin isotope at m/z 539 and 541 distributed equally (insert in top panel) and was selected for further analysis, as shown in the two chromatograms in the bottom panels.
Thirty microgram of purified GAPDH protein was incubated in vitro with 60 μM 3-BP for 15 minutes at 37° C. Mass spectrometrical analysis was then used to determine whether 3-BP could directly bind to the amino acid sequence of the enzyme. […]

HCT116 cells [3] = experiment: MTT assay with or without supplemental pyruvate; assay type: cell-based, human; details: HCT116, MTT after 24 hours
Description: as §1
To test this hypothesis, HCT116 cells were treated with increasing concentrations of NEO218 and 3-BP (individually) in the presence or absence of 10 mM pyruvate. Viability of cells was determined 24 hours later by MTT cell viability assay.

[4] = system: MCF7, 231, T47D, BTB-12, ME16C, 468, HCT116 cells; experiment: MTT cytotoxic IC50 aligned with MCT1 expression levels (FIG. 14); details: Homo sapiens
Description: The expression levels of MCT1 in different tumor cell lines were determined by Western blot analysis and correlated with cytotoxic IC50 values in response of treatment of the same cells with NEO218 or 3-BP generated by MTT assay.

Question: `O=C(O)C(=O)CBr` [3-BP, 3-bromopyruvate] was tested. Which “effect of necrostatin-1 on drug-induced cytotoxic outcome” value (tumor cells) did it give?
Answer: no impact of Nec-1 on drug-induced cytotoxic outcome could be detected

Question: And the “block of colony formation in CFA” value (HCT116 cells [1]; HCT116, 40 μM)?
Answer: 99%

Question: What about the IC50 (HCT116 cells [1]) of the same molecule?
Answer: ~3000 nM

Question: What about the “effect of antioxidants NAC or GSH on drug-induced cell death” value (HCT116 cells [2]) of the same molecule?
Answer: profound protection; also recorded: drug-induced cell death was completely prevented

Question: And the “cysteine residues of GAPDH modified” value (GAPDH)?
Answer: Cysteines at amino acid positions 245 and 282 turned out to be pyruvylated; also recorded: all 4 cysteines were altered by the addition of pyruvate

Question: What about the “effect of supplemental pyruvate on drug-induced cell death” value (HCT116 cells [3]) of the same molecule?
Answer: profound protection; also recorded: excess pyruvate was able to completely prevent cell death

Question: What about the IC50 ([4]; HCT-116, read-out: cytotoxic IC50) of the same molecule?
Answer: < 100000 nM

Question: And the IC50 ([4]; read-out: cytotoxic IC50)?
Answer: > 300000 nM

Question: With `C=C(C)[C@@H]1CC=C(COC(=O)C(=O)CBr)CC1` [NEO218, 3-bromo-2-oxo-propionic acid 4-isopropenyl-cyclohex-1-enylmethyl ester] as the molecule, how does the “effect of necrostatin-1 on drug-induced cytotoxic outcome” value (tumor cells) read?
Answer: no impact of Nec-1 on drug-induced cytotoxic outcome could be detected

Question: And the IC50 (HCT116 cells [1])?
Answer: ~3000 nM

Question: And the “effect of antioxidants NAC or GSH on drug-induced cell death” value (HCT116 cells [2])?
Answer: antioxidant treatment similarly protected cells; also recorded: drug-induced cell death was completely prevented

Question: What about the “cysteine residues of GAPDH modified” value (GAPDH) of the same molecule?
Answer: the same four residues revealed attachment of pyruvate-perillyl alcohol moieties

Question: What about the “effect of supplemental pyruvate on drug-induced cell death” value (HCT116 cells [3]) of the same molecule?
Answer: no protection at all when pyruvate was added; also recorded: pyruvate had no effect on viability at all

Question: What about the IC50 ([4]; read-out: cytotoxic IC50) of the same molecule?
Answer: < 35000 nM

Reference: patent US10858305B2, “Perillyl alcohol-3-bromopyruvate conjugate and methods of treating cancer” (NeOnc Technologies, Inc., priority 2016, dated 2020)
